Data from ChEMBL document CHEMBL1201862, “PubChem BioAssay data set” (2004).
Where “and” joins values, the source holds several entries; their conditions need not be identical. Identical values can stand only once.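 Compound exposure: 48 hours, 5 concentrations, 96-well plates. GI50 marks 50% less growth.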 Calls of active or inactive are those of the source. No stated cut-off is given here; in the data, active = GI50 up to about 1.1 µM and inactive = higher.

Key:
Experiment in all cases: NCI tumour cell line growth inhibition, 48 h
NCI-H460 = tested on: NCI-H460
SK-OV-3 = tested on: SK-OV-3
MCF7 = tested on: MCF7
ACHN = tested on: ACHN
CCRF-CEM = tested on: CCRF-CEM
M14 = tested on: M14
EKVX = tested on: EKVX
PC-3 = tested on: PC-3
NCI-H226 = tested on: NCI-H226
MDA-MB-231 = tested on: MDA-MB-231
OVCAR-4 = tested on: OVCAR-4
SNB-19 = tested on: SNB-19
A549 = tested on: A549
NCI-H522 = tested on: NCI-H522
MDA-N = tested on: MDA-N
Hs-578T = tested on: Hs-578T
UACC-62 = tested on: UACC-62
HOP-62 = tested on: HOP-62
HL-60 = tested on: HL-60
HOP-92 = tested on: HOP-92

Measured: GI50

CC(C)=C[C@H]1CCC2(OCCO2)[C@]1(C)CO
inactive: NCI-H460 > 100 µM | SK-OV-3 > 100 µM | MCF7 > 100 µM | ACHN > 100 µM | CCRF-CEM > 100 µM | M14 > 100 µM | EKVX 58.7 µM | PC-3 > 100 µM | NCI-H226 > 100 µM | MDA-MB-231 > 100 µM | OVCAR-4 > 100 µM | SNB-19 > 100 µM | A549 > 100 µM | NCI-H522 > 100 µM | MDA-N > 100 µM

Cn1c(C(C)(C)OC(=O)Oc2ccccc2)cnc1[N+](=O)[O-]
inactive: Hs-578T > 100 µM | NCI-H460 80.9 µM | SK-OV-3 > 100 µM | MCF7 63 µM | ACHN > 100 µM | M14 > 100 µM | UACC-62 55.6 µM | EKVX 42.9 µM | PC-3 > 100 µM | NCI-H226 36.6 µM | MDA-MB-231 26.1 µM | HOP-62 > 100 µM | HL-60 36.5 µM | OVCAR-4 38.7 µM | HOP-92 > 100 µM | SNB-19 > 100 µM | A549 > 100 µM | NCI-H522 70.8 µM

Cn1c(=O)oc2nc(-c3ccccc3)cc(C(F)(F)F)c21
inactive: NCI-H460 > 100 µM | SK-OV-3 > 100 µM | MCF7 37.8 µM | ACHN > 100 µM | M14 > 100 µM | UACC-62 > 100 µM | EKVX > 100 µM | PC-3 > 100 µM | NCI-H226 > 100 µM | MDA-MB-231 > 100 µM | HOP-62 > 100 µM | OVCAR-4 45.4 µM | HOP-92 35.7 µM | SNB-19 > 100 µM | A549 > 100 µM | NCI-H522 > 100 µM | MDA-N 3.23 µM

CC(CO)C1C[C@H](O)[C@@]2(C)CC(=O)C=C(CO)[C@@H]2C1 (some centres not stated)
inactive: NCI-H460 > 100 µM | SK-OV-3 > 100 µM | MCF7 > 100 µM | ACHN > 100 µM | M14 > 100 µM | UACC-62 > 100 µM | EKVX > 100 µM | NCI-H226 > 100 µM | MDA-MB-231 > 100 µM | HOP-62 > 100 µM | HL-60 92 µM | OVCAR-4 > 100 µM | HOP-92 > 100 µM | SNB-19 > 100 µM | A549 > 100 µM | MDA-N > 100 µM

CN(C)c1ncnc2c1ncn2C1C=CC(COS(N)(=O)=O)C1 (configuration not stated)
inactive: Hs-578T 44.5 µM | NCI-H460 > 100 µM | SK-OV-3 > 100 µM | MCF7 > 100 µM | ACHN > 100 µM | CCRF-CEM > 100 µM | M14 > 100 µM | UACC-62 > 100 µM | EKVX > 100 µM | PC-3 60.7 µM | HOP-62 > 100 µM | HL-60 > 100 µM | OVCAR-4 > 100 µM | HOP-92 > 100 µM | SNB-19 > 100 µM | A549 > 100 µM | NCI-H522 47.2 µM | MDA-N > 100 µM

CN(/N=C\c1ccc2ccccc2c1)C1=NCCCN1
inactive: Hs-578T 10.7 µM | NCI-H460 4.7 µM | SK-OV-3 19.1 µM | MCF7 3.56 µM | ACHN 13.3 µM | CCRF-CEM 12.7 µM | UACC-62 14.2 µM | EKVX 17.3 µM | NCI-H226 17 µM | MDA-MB-231 15.6 µM | HOP-62 12.1 µM | HL-60 8.71 µM | OVCAR-4 26.5 µM | HOP-92 2.11 µM | A549 8.18 µM | NCI-H522 13.8 µM

COC(=O)c1ccccc1/C=C1\Cc2ccc(C)c(C)c2C1=O
inactive: Hs-578T 92.9 µM | NCI-H460 > 100 µM | MCF7 > 100 µM | ACHN > 100 µM | CCRF-CEM > 100 µM | M14 > 100 µM | UACC-62 > 100 µM | EKVX > 100 µM | PC-3 > 100 µM | NCI-H226 > 100 µM | HOP-62 59.8 µM | HL-60 > 100 µM | OVCAR-4 > 100 µM | HOP-92 34.2 µM | SNB-19 44.5 µM | A549 > 100 µM | NCI-H522 65.5 µM | MDA-N > 100 µM

CC(=O)OCC1OC(n2c(-c3ccccc3)c(C(C)=O)c(-c3cccc4ccccc34)c(C#N)c2=S)C(OC(C)=O)C(OC(C)=O)C1OC(C)=O (configuration not stated)
inactive: NCI-H460 > 100 µM | SK-OV-3 > 100 µM | MCF7 > 100 µM | ACHN > 100 µM | CCRF-CEM > 100 µM | M14 > 100 µM | EKVX 83.6 µM | PC-3 62.2 µM | NCI-H226 > 100 µM | MDA-MB-231 > 100 µM and 54.1 µM | HOP-62 > 100 µM | HL-60 > 100 µM | OVCAR-4 28.7 µM and 17.9 µM | SNB-19 > 100 µM | A549 > 100 µM | NCI-H522 > 100 µM | MDA-N > 100 µM

O=C(O)CN1CCN(CC(=O)N2CCN(C(=O)OCc3ccccc3)CC2)CCN(CC(=O)O)CCN(CC(=O)N2CCN(C(=O)OCc3ccccc3)CC2)CC1
inactive: Hs-578T > 100 µM | NCI-H460 > 100 µM | SK-OV-3 > 100 µM | MCF7 > 100 µM | ACHN > 100 µM | CCRF-CEM > 100 µM | M14 > 100 µM | UACC-62 > 100 µM | EKVX > 100 µM | PC-3 > 100 µM | NCI-H226 > 100 µM | MDA-MB-231 > 100 µM | HOP-62 > 100 µM | HL-60 > 100 µM | OVCAR-4 > 100 µM | HOP-92 > 100 µM | SNB-19 > 100 µM | A549 > 100 µM | NCI-H522 > 100 µM

COc1cc2ccc3c4cc(OC)c(OC)cc4c[n+](C)c3c2cc1O
inactive: NCI-H460 > 26.7 µM | SK-OV-3 > 100 µM | ACHN > 42.2 µM | CCRF-CEM > 100 µM | M14 > 100 µM | UACC-62 > 100 µM | EKVX > 100 µM | NCI-H226 9.16 µM | HOP-62 > 92.5 µM | HL-60 > 100 µM | OVCAR-4 > 81.8 µM | HOP-92 > 100 µM | SNB-19 3.91 µM | A549 > 100 µM | NCI-H522 8.97 µM

COS(=O)(=O)OCCC(NC(=O)OCc1ccccc1)C(=O)OCc1ccccc1 (configuration not stated)
inactive: NCI-H460 > 100 µM | SK-OV-3 > 100 µM | ACHN > 100 µM | CCRF-CEM > 100 µM | M14 > 100 µM | UACC-62 > 100 µM | EKVX > 100 µM | NCI-H226 > 100 µM | HOP-62 > 100 µM | HL-60 53.3 µM | OVCAR-4 > 100 µM | HOP-92 > 100 µM | SNB-19 > 100 µM | A549 > 100 µM | NCI-H522 > 100 µM

COc1ccc(-n2c(=O)c3nc[nH]c3n(-c3ccc(OC)cc3)c2=S)cc1
inactive: NCI-H460 > 100 µM | SK-OV-3 > 100 µM | MCF7 > 100 µM | ACHN > 100 µM | CCRF-CEM > 100 µM | M14 > 100 µM | UACC-62 > 100 µM | EKVX > 100 µM | PC-3 > 100 µM | NCI-H226 > 100 µM | MDA-MB-231 > 100 µM | HOP-62 > 100 µM | HL-60 > 100 µM | OVCAR-4 > 100 µM | HOP-92 > 100 µM | A549 > 100 µM | NCI-H522 17.7 µM

CCOC(=O)c1cc(-c2ccc(Cl)cc2)c([N+](=O)[O-])n1C
inactive: Hs-578T > 10 µM | NCI-H460 > 10 µM | SK-OV-3 > 10 µM | ACHN > 10 µM | CCRF-CEM > 10 µM | M14 > 10 µM | EKVX > 10 µM | NCI-H226 > 10 µM | HL-60 > 10 µM | OVCAR-4 > 10 µM | HOP-92 > 10 µM | SNB-19 > 10 µM | A549 > 10 µM | NCI-H522 > 10 µM | MDA-N > 10 µM
active: MDA-MB-231 0.08 µM

O=C1c2ccccc2C(=O)N1NC1=NCCN1
inactive: NCI-H460 > 100 µM | SK-OV-3 > 100 µM | MCF7 > 100 µM | ACHN > 100 µM | CCRF-CEM > 100 µM | M14 > 100 µM | UACC-62 > 100 µM | EKVX > 100 µM | PC-3 > 100 µM | NCI-H226 > 100 µM | MDA-MB-231 > 100 µM | HOP-62 > 100 µM | HL-60 > 100 µM | OVCAR-4 > 100 µM | SNB-19 > 100 µM | A549 > 100 µM | NCI-H522 > 100 µM | MDA-N > 100 µM

COc1ccc(-n2c(C)nc3ccc(NC(=S)Nc4ccccc4)cc3c2=O)cc1
inactive: Hs-578T > 100 µM | NCI-H460 12.4 µM | MCF7 43.2 µM | ACHN 65.9 µM | UACC-62 61.4 µM | EKVX 65.2 µM | PC-3 35.7 µM | NCI-H226 43.2 µM | MDA-MB-231 > 100 µM | HOP-62 > 100 µM | HL-60 53.3 µM | OVCAR-4 86.1 µM | SNB-19 > 100 µM | NCI-H522 56.8 µM

Cc1c(O)c(OC2OC(CO)C(O)C(O)C2O)cc2c1CC[C@@H]1C2(C)C(=O)C[C@]2(C)[C@@H]([C@@](C)(O)C(=O)CCC(C)(C)O)[C@H](O)C[C@@]12C (some centres not stated)
inactive: NCI-H460 > 100 µM | SK-OV-3 > 100 µM | MCF7 > 100 µM | ACHN > 100 µM | CCRF-CEM > 100 µM | M14 > 100 µM | UACC-62 > 100 µM | EKVX > 100 µM | PC-3 > 100 µM | NCI-H226 > 100 µM | MDA-MB-231 > 100 µM | HOP-62 > 100 µM | OVCAR-4 > 100 µM | HOP-92 > 100 µM | SNB-19 > 100 µM | A549 > 100 µM | NCI-H522 > 100 µM | MDA-N > 100 µM
